Measurements as given in the NIST ThermoML archive (doi:10.1016/j.jct.2018.09.012).
Numbers after ± are expanded uncertainties.

Legend:
[1] = for vapor or sublimation pressure: Gas chromatography; for Normal melting temperature: Crystal
[2] = Molar enthalpy of transition or fusion; conditions: Crystal; DSC

CC1(C)CCC[C@]2(C)[C@H]3CCO[C@]3(C)CC[C@@H]12 [(-)-Ambroxide]
[1]
Conditions	vapor or sublimation pressure [kPa]
298.15 K, Metastable liquid	0.00012 ± 3e-05
310 K, Metastable liquid	0.00039 ± 0.00011
320 K, Metastable liquid	0.00096 ± 0.00025
330 K, Metastable liquid	0.0023 ± 0.0006
340 K, Metastable liquid	0.0049 ± 0.0012
350 K, Liquid	0.01 ± 0.002
360 K, Liquid	0.02 ± 0.004
370 K, Liquid	0.038 ± 0.007
380 K, Liquid	0.069 ± 0.012
390 K, Liquid	0.12 ± 0.018
400 K, Liquid	0.2 ± 0.026
410 K, Liquid	0.32 ± 0.039
420 K, Liquid	0.51 ± 0.057
430 K, Liquid	0.77 ± 0.086
440 K, Liquid	1.1 ± 0.13
450 K, Liquid	1.7 ± 0.2
460 K, Liquid	2.4 ± 0.24
470 K, Liquid	3.4 ± 0.34
480 K, Liquid	4.7 ± 0.47
490 K, Liquid	6.3 ± 0.63
500 K, Liquid	8.4 ± 0.84

[1]
Conditions	Normal melting temperature [°C]
DTA	72.7 ± 1.3
visual observation	75.00 ± 3

Conditions	Molar enthalpy of transition or fusion [kcal/mol]
[2]	4.85 ± 0.191

CC1COCc2cc3c(cc21)C(C)(C)C(C)C3(C)C (stereo not drawn) [Galaxolide]
[1], Metastable liquid
Conditions	vapor or sublimation pressure [kPa]
298.15 K	2.6e-05 ± 8e-06
310 K	9.9e-05 ± 2.9e-05
320 K	0.00027 ± 8e-05
330 K	0.00071 ± 0.00019
340 K	0.0017 ± 0.0004
350 K	0.0038 ± 0.0009
360 K	0.0081 ± 0.0018
370 K	0.016 ± 0.003
380 K	0.032 ± 0.006
390 K	0.058 ± 0.009
400 K	0.1 ± 0.014
410 K	0.16 ± 0.022
420 K	0.29 ± 0.035
430 K	0.46 ± 0.055
440 K	0.72 ± 0.088
450 K	1.1 ± 0.14
460 K	1.6 ± 0.16
470 K	2.4 ± 0.24
480 K	3.4 ± 0.34
490 K	4.8 ± 0.48
500 K	6.6 ± 0.66

c1ccc2c(c1)oc1ccccc12 [dibenzo[bd]furan]
[1]
Conditions	vapor or sublimation pressure [kPa]
298.15 K, Metastable liquid	0.0011 ± 0.0001
310 K, Metastable liquid	0.0031 ± 0.0003
320 K, Metastable liquid	0.007 ± 0.0007
330 K, Metastable liquid	0.015 ± 0.002
340 K, Metastable liquid	0.03 ± 0.003
350 K, Metastable liquid	0.058 ± 0.006
360 K, Liquid	0.11 ± 0.011
370 K, Liquid	0.18 ± 0.018
380 K, Liquid	0.31 ± 0.031
390 K, Liquid	0.51 ± 0.051
400 K, Liquid	0.8 ± 0.08
410 K, Liquid	1.2 ± 0.12
420 K, Liquid	1.8 ± 0.18
430 K, Liquid	2.6 ± 0.26
440 K, Liquid	3.7 ± 0.37
450 K, Liquid	5.2 ± 0.52

c1ccc2ccccc2c1 [naphthalene]
Conditions	Normal melting temperature [°C]
[1], DTA	79.2 ± 1.4

Conditions	Molar enthalpy of transition or fusion [kcal/mol]
[2]	4.57 ± 0.108
